Measurements: US12447193B2, “Compositions and methods for prevention and treatment of infections” (The University of Memphis Research Foundation, priority 2019, dated 2025)

System: S. aureus (UAMS-1)
Test: Osteomyelitis model in New Zealand White rabbits
Type: in vivo
Conditions: rabbit radius defect, 3 weeks, H&E
Experimental: This animal model was approved by the IACUC at the University of Arkansas Medical Sciences with all appropriate measures taken to minimize pain and discomfort. This in vivo model is an adaptation of the work by Smeltzer et al J Orthop Res, 1997 15(3):414-21. Female New Zealand White rabbits weighing 2-3 kg were divided into 5 groups (n=6/group) including the following: no treatment control, a hollow PMMA (Orthoset, MicroPort Memphis, TN) cylinder with amikacin and vancomycin (approximately 15 mg/implant), a vancomycin sprinkle of 10 mg, the Ch-PEG paste, and the ChMPEG paste. Rabbits were anesthetized with 1-2 cc of a xylazine/ketamine mixture intramuscularly for a dose range of […] xylazine and 30-40 mg/kg ketamine. Rabbits were maintained on isoflurane administered by nose cone to produce surgical anesthesia and monitored by a veterinary technician. The right forelimb of each rabbit was shaved and prepped using a betadine scrub and rinsed with 70% ethanol. An incision was made on the anterior surface of the right forelimb through the epidermis, musculature, and fascia until the radius was exposed. A 1 cm mid-radial segment was excised from the right radial bone using a miniature saw blade (Exakt, Oklahoma City, OK). […]

CN[C@H](CC(C)C)C(=O)N[C@H]1C(=O)N[C@@H](CC(N)=O)C(=O)N[C@H]2C(=O)N[C@H]3C(=O)N[C@H](C(=O)N[C@H](C(=O)O)c4cc(O)cc(O)c4-c4cc3ccc4O)[C@H](O)c3ccc(c(Cl)c3)Oc3cc2cc(c3O[C@@H]2O[C@H](CO)[C@@H](O)[C@H](O)[C@H]2O[C@H]2C[C@](C)(N)[C@H](O)[C@H](C)O2)Oc2ccc(cc2Cl)[C@H]1O [vancomycin powder, vancomycin]
inflammation in histological sections of bone in the defect: areas of high inflammatory cell presence
tissue growth / fill in the defect (histology): tissue fill within the defect
